Reference: patent US11583517B2, “Dual antagonist of PGD2/DPr2 and Thromboxane A2/TPr receptors and use for treatment of maladaptive immune response or thrombotic diathesis” (priority 2020, dated 2023)
“Also recorded” adds a separate entry of the source.

Key:
[1] = system: Alzheimer's disease; test: AD patients randomized to four treatment groups; format: in vivo, human; conditions: long-term follow-up, compared with placebo
[2] = system: Parkinson's disease; test: patients with Parkinson's disease; format: in vivo, human
[3] = system: TAO; test: male smokers with TAO, ramatroban versus aspirin; format: in vivo, human; conditions: 12 months
Description: All patients can be prescribed standard therapies including pentoxifylline, iloprost, calcium antagonists, statins and low molecular weight heparin or oral anticoagulants. […] There is increase in blood flow in the dorsalis pedis and posterior tibial pulses arteries by doppler examination with a decrease in need for surgical procedures and amputations. Improvement was seen of active vascular lesions and pain symptoms.

[4] = system: pneumoconiosis; test: non-smoking stone crushers, chemoprophylaxis versus placebo; conditions: 5 years
[5] = system: dye nephrotoxicity and acute kidney injury; test: ramatroban versus placebo prior to cardiac catheterization; format: in vivo, human; conditions: chronic kidney disease or heart failure, compared to placebo
Description: Patients with chronic kidney disease or heart failure are randomized to receive ramatroban versus placebo prior to cardiac catheterization.

[6] = system: asthma and allergic rhinitis; conditions: added to conventional therapeutic regimen
[7] = system: sickle cell disease; test: SCD patient given COVID-19 vaccine with ramatroban; format: in vivo, human
Description: A patient with sickle cell disease (SCD) has a past history of multiple vaso-occlusive crisis (VOC), acute chest syndrome (ACS) and ischemic cerebrovascular accidents. Patient is administered the AstraZeneca vaccine as prophylaxis against COVID-19. […] The same regimen is repeated at the time of the second dose of the vaccine. […] Other similar patients with SCD are found to experience high incidence of thrombotic events after COVID-19 vaccines.

[8] = system: Kawasaki like disease; conditions: in vivo
[9] = system: COVID-19
[10] = system: acute viral pneumonia; format: in vivo, human
[11] = system: TAO; test: TAO patient and randomized control trial versus standard of care; format: in vivo, human
[12] = system: silicosis mice; conditions: silica-induced mouse model; cited from earlier work
[13] = system: viral infection; test: outbreak of viral infection in animal shelter facility; format: in vivo, dogs and cats; conditions: older animals
Description: In a large animal shelter facility, there was an outbreak of viral infection largely affecting dogs and cats leading to deaths of many older animals, while the young animals survived.

[14] = system: primary pulmonary hypertension; test: patient with primary pulmonary hypertension; format: in vivo, human; conditions: person
Description: Patient is diagnosed to have primary pulmonary hypertension.

[15] = system: Alzheimer's disease; conditions: in vivo; cited from earlier work
[16] = Patient 6b, two months after start
[17] = retrospective analysis of COVID-19 patients
[18] = retrospective analysis, ramatroban continued after discharge

Q: For `O=C(O)CCn1c2c(c3ccccc31)C[C@H](NS(=O)(=O)c1ccc(F)cc1)CC2` [Ramatroban, 3-[(3R)-3-[(4-fluorophenyl)sulfonylamino]-1,2,3,4-tetrahydrocarbazol-9-yl]propanoic acid], which cognition and memory [1] is on record?
A: improvement

Q: What about the falls ([2]; Patient 6a) of the same compound?
A: stops falling

Q: And the hallucinations ([2]; Patient 6a)?
A: no longer experiences hallucinations

Q: And the cognitive function ([2]; Patient 6a, at 4 months)?
A: significant improvement

Q: What about the sense of balance ([2]; Patient 6a, first week of treatment) of the same compound?
A: subjective improvement

Q: What about the “cognitive ability and sociability” value [2, 16] of the same compound?
A: marked improvements

Q: What about the hallucinations [2, 16] of the same compound?
A: reduction

Q: What about the physical functioning [2, 16] of the same compound?
A: significant improvement

Q: What about the “active vascular lesions and pain symptoms” value [3] of the same compound?
A: Improvement

Q: And the “blood flow in the dorsalis pedis and posterior tibial arteries by doppler” value [3]?
A: increase

Q: And the “development of ulcers in the fingertips and toes, acrocyanosis, necrosis and loss of substance” value [3]?
A: significantly less

Q: And the “need for surgical procedures and amputations” value [3]?
A: decrease

Q: What about the lung compliance [4] of the same compound?
A: higher

Q: What about the lung fibrosis [4] of the same compound?
A: significantly reduced

Q: And the “dye nephrotoxicity and acute kidney injury” value [5]?
A: significantly less

Q: What about the improvement in symptoms [6] of the same compound?
A: 25%

Q: And the “antibody response to vaccine” value ([7]; AstraZeneca vaccine, ramatroban 75 mg twice a day orally for one month)?
A: robust

Q: And the “VOC, ACS, myocardial infarction or stroke” value ([7]; after vaccine, ramatroban 75 mg twice a day orally)?
A: no recrudescence or recurrence

Q: What about the laboratory parameters [8] of the same compound?
A: marked improved

Q: And the “prophylaxis against Kawasaki like disease” value [8]?
A: remains healthy

Q: What about the “pulmonary function tests and DLCO” value ([9]; after 2 months) of the same compound?
A: normal

Q: And the “chest X-ray” value ([9]; after 2 months, ramatroban continued as outpatient)?
A: complete resolution of the infiltrates with no evidence of any pulmonary fibrosis or scarring

Q: What about the “time to discharge home” value ([9]; person, 75 mg twice a day) of the same compound?
A: 5 days

Q: And the lymphocyte counts [9, 17]?
A: rapid improvement

Q: What about the “need for mechanical ventilation” value [9, 17] of the same compound?
A: less

Q: What about the recovery time [9, 17] of the same compound?
A: shorter

Q: What about the thrombocytopenia [9, 17] of the same compound?
A: rapid recovery

Q: And the “fibrosis and scarring in the lungs” value [9, 18]?
A: reduced

Q: And the lung function [9, 18]?
A: better

Q: What about the lung compliance ([10]; long term follow up) of the same compound?
A: higher

Q: What about the lung fibrosis ([10]; long term follow up) of the same compound?
A: significantly reduced

Q: And the “resolution of pneumonia during the hospitalization” value ([10]; versus placebo, with conventional therapy)?
A: significantly more rapid

Q: What about the “blood flow to the lower extremities” value ([11]; a) person) of the same compound?
A: improvement

Q: What about the gangrenous toes ([11]; a), chronic smoker) of the same compound?
A: partial resolution and healing

Q: What about the ischemic lesions ([11]; b) randomized control trial, versus control group) of the same compound?
A: resolution

Q: What about the blood flow ([11]; b) randomized control trial, with standard of care versus standard of care) of the same compound?
A: improvement

Q: And the “NLRP3 inflammasome, IL-1beta and caspase-1” value [12]?
A: inhibiting

Q: What about the “fibrosis and resulting cardiopulmonary dysfunction” value [12] of the same compound?
A: inhibiting; also recorded: significantly reducing

Q: And the “infiltration with macrophages, lymphocytes and neutrophils” value [12]?
A: reducing; also recorded: markedly inhibited

Q: What about the lung compliance [12] of the same compound?
A: restoring

Q: And the silica-induced pulmonary inflammation [12]?
A: alleviated

Q: And the infection severity [13]?
A: marked decline

Q: What about the mortality [13] of the same compound?
A: marked decrease

Q: Which clinical response [14] does the source give for `COc1ccccc1Oc1c(NS(=O)(=O)c2ccc(C(C)(C)C)cc2)nc(-c2ncccn2)nc1OCCO` [bosentan] here?
A: no response

Q: Which clinical response [14] does the source give for `CCCc1nn(C)c2c(=O)[nH]c(-c3cc(S(=O)(=O)N4CCN(C)CC4)ccc3OCC)nc12` [sildenafil] here?
A: no response

Q: What does the source list for “sodium oligomannate [sodium oligomannate (GV-971)]”?
A: cognition and memory [1]: improvement; cognitive impairment in Alzheimer's disease [15]: improves
